Converted amounts (≈) assume the structure as drawn. Each block holds one molecule with its values, some of them ahead of it.
Columns and labels:
[1] = target: T1, Syk (Homo sapiens, UniProt P43405); details: 1 μM concentration; cited from earlier work
[2] = target: T2, TrkA (Rattus norvegicus, UniProt P35739); assay: PC-12/luc/Elk1 luciferase reporter cellular assay (NGF-induced); format: cell-based; details: 50 ng/ml NGF, 18 h treatment
T2 construct: endogenous in cells; host or cells: PC-12 and PC-12/luc/Elk1 (rat pheochromocytoma)
Source text: A stably transfected cell line was generated in order to assess the capability of the compounds to inhibit the activation of TrkA receptor in the natural (neural) cellular context. Once the endogenic TrkA of the PC-12/luc/Elk1 cell line becomes activated, the downstream events result in phosphorylation of Elk1, the GAL4-dbd fused to Elk1 binds then to GAL4 UAS and activates the transcription of luciferase (FIG. 3). To address the suitability of the generated system for screening application, the Z′-factor was determined (see also Examples section). […] Z′-factor value above 0.5 is considered an indication of a high quality assay. The timeframe of 18 hours with the highest Z′-factor value was chosen for subsequent experiments.
PC-12 (rat adrenal pheochromocytoma cell line) cells were transfected using LIPOD293 DNA In Vitro Transfection Reagent (SignaGen) with 1 μg of pFA2-Elk1 plasmid and 4 μg of pFR-LUC plasmid (PathDetect Elk1 trans-Reporting System; Agilent Technologies). pFA2-Elk1 plasmid codes for the fusion protein consisting of GAL4-dbd (DNA-binding domain) followed by Elk1 transcription factor and contains Geneticin G418 resistance gene neomycin. pFR-LUC plasmid codes for GAL4 upstream activation sequence (UAS) followed by luciferase reporter gene. A puromycin resistance gene was introduced to the pFR-LUC plasmid using Bst1107I and NdeI restrictases from pGL4.22[luc2CP/Puro] (Promega). The selection of transfected cells was initiated two days after the transfection with addition of 300 μg/ml of G418 (Sigma) and 0.75 μg/ml of puromycin (Sigma-Aldrich) and continued for about one and a half months until distinct cell colonies could be picked, plated, and tested for responsiveness to NGF. Generated cell line, called hereafter PC-12/luc/Elk1, was maintained in Dulbecco's Modified Eagle's Medium (DMEM; PAA) containing 6% fetal bovine serum (FBS; PAA), 6% horse serum (HS; PAA), 1% penicillin/streptomycin (PS; Gibco), 300 μg/ml of Geneticin G418, and 0.75 μg/ml of puromycin. […] PC-12 cells were maintained in DMEM containing 6% FBS, 6% HS, and 1% PS.
PC-12/luc/Elk1 cells were plated one day before the assay on 96 well plates in 25,000 cells per well. […] The plate was subjected to 10 minutes of shaking and, thereafter, analyzed using TECAN plate reader. […]
The IC50's of the compounds were determined using cellular and biochemical assays. In the cellular assays, using PC-12/luc/Elk1 and MG87/TrkB/luc/Elk1 cells, the compounds were assessed in gradual dilutions of the compounds in triplets together with NGF or BDNF (Peprotech), respectively. TrkA inhibition was determined using same methodology as for measuring the Z′-factor with 18 h treatment time. […]

[3] = target: T3, TrkA (Homo sapiens, UniProt P04629); assay: In vitro kinase profiling (48 kinases), TrkA; format: biochemical; details: 1 μM concentration; read-out: residual activity of TrkA
T3 construct: purchased ProQinase, Germany (custom-ordered assay service)
Protocol: According to the results, at concentration of 100 nM all compounds were relatively TrkA specific inhibiting only up to 3 off-target kinases, while reducing the activity of TrkA by at least 82% at 100 nM concentration and 94% at 1 μM concentration. At 100 nM, 2a25 was able to inhibit only TrkA. […] Kinases that were inhibited by most of the compounds at 1 concentration included Aurora-B, CAMKK2, CHK2, IRAK4, LCK, and MAP3K11.
(§1) The biochemical kinase assays were custom ordered from ProQinase, Germany.

[4] = tested on: cortical neurons, PC-12 cells or dividing MG87/TRKB/luc/Elk1 cells; assay: Toxic or adverse effect on cells (summary statement); format: cell-based
Source text: The Trk antagonists of the invention share a similar indole-like basic structure; however, substituent substitution yielded compounds with markedly high activity and specificity for the Trk family.

[5] = target: T1, Syk; assay: In vitro kinase profiling (48 kinases), Syk; format: biochemical; design: Aurora-B, CaMMK2, Chk2, Irak4, Lck, Map3K11, Syn aa1-635, TrkA, TrkB, and TrkC; purchased ProQinase, Germany (custom-ordered assay service); details: for inhibition of Syk: own experiments
Source text: as §1

[6] = target: T1, Syk; details: cited from earlier work
[7] = target: T3, TrkA; details: 1 μM concentration; cited from earlier work
[8] = tested on: Akt and Erk1/2; assay: Western blot of phosphorylated downstream kinases; format: cell-based; details: compared to NGF or BDNF alone
Protocol: (§2) The compounds were tested on PC-12 and MG87/TrkB/luc/Elk1 cells that express TrkA and TrkB, respectively. The cells were treated concurrently with NGF or BDNF and the compounds at three different concentrations. The levels of phosphorylated kinases were assessed using respective antibodies and further quantification of western blot signals. […] Additionally, in these two distinct cellular systems the activity of the Trk proteins may be incomparable due to their different concentration or interaction partners that can affect their behavior. For this reason, most probably there is no big selectivity of these compounds for the Trk kinases which is expected, as the ATP-binding pockets of Trk proteins are highly similar.
(§3) The PC-12 and MG87/TrkB/luc/Elk1 cells were plated on 6-well plates one day prior to the assay. Cells were treated for 10 minutes with compounds and simultaneously with 50 ng/ml of NGF (PC-12 cells) or BDNF (MG87/TrkB/luc/Elk1 cells). 0.1% of DMSO was used to determine the base level, 0.1% of DMSO concurrently with 50 ng/ml of NGF or BDNF served as a negative control and 0.1% of DMSO concurrently with 5 nM of AZ-23 as a positive control. Thereafter, western blotting was performed as described previously. Antibodies used included: rabbit anti-TrkA (#06-574; 1:1000) from Millipore; rabbit anti phospho-TrkA (#9141; 1:1000), rabbit anti phospho-TrkA/TrkB (#4619; 1:1000), rabbit anti-TrkB (#4603; 1:1000) and rabbit anti phospho-Akt (#4058; 1:3000) from Cell Signaling; mouse anti phosphor-Erk1/2 (#sc-7383; 1:1000) from Santa Cruz and anti-tubulinβ clone E7 (1:1000) from Prof. Michael Klymkovsky.

[9] = target: T4, TrkB (Rattus norvegicus, UniProt Q63604); assay: Western blot of phosphorylated TrkB in MG87/TrkB/luc/Elk1 cells; format: cell-based; details: concurrently with BDNF, statistically significant reduction at 1 μM
T4 construct: expressed in transfected cells; host or cells: MG87/TrkB/luc/Elk1
Protocol: as §2, §3

[10] = target: T2, TrkA; assay: Western blot of phosphorylated TrkA in PC-12 cells; format: cell-based; details: concurrently with NGF, statistically significant reduction at 1 μM
Protocol: as §2, §3

[11] = target: 48 kinases representing the human kinome; assay: In vitro kinase profiling, panel of 48 kinases (off-targets); format: biochemical; details: 100 nM
Source text: as §1

[12] = tested on: Rat cortical cells; assay: Viability of primary cortical neurons (neuron count); format: cell-based; details: 24 h, even at 1 μM concentration
Protocol: Neurons were grown in NEUROBASAL, a medium supplemented with B27 with phenol red on ploy-L-lysine-coated 35 mm glass bottomed dishes. Culture media and supplements were obtained from Invitrogen (Carlsbad, Calif.). For viability measurements neurons were first transfected with neuronal maker, pAAV-hSyn-DsRedExpress obtained from Addgene (Cambridge, Mass.) allowing better to assess the morphology of individual neurons. Briefly, the condition medium was replaced with 100 μL Opti-MEM 1 medium, containing 2% Lipofectamine 2000 and 1-2 μg of total DNA. Neurons were incubated for 3-4 hrs, after which fresh medium was added.

[13] = In vivo toxicology study; details: C57/B16 mice
[14] = tested on: MG87/TrkB/luc/Elk1 cells; assay: Cellular ATP content, CellTiter-Glo viability assay; format: cell-based; details: different concentrations, 24 h
Protocol: ATP was measured at least from 8 different wells per treatment condition.

[15] = Aqueous solubility; format: physicochemical; details: room temperature

T4 sequence (Q63604 32-821): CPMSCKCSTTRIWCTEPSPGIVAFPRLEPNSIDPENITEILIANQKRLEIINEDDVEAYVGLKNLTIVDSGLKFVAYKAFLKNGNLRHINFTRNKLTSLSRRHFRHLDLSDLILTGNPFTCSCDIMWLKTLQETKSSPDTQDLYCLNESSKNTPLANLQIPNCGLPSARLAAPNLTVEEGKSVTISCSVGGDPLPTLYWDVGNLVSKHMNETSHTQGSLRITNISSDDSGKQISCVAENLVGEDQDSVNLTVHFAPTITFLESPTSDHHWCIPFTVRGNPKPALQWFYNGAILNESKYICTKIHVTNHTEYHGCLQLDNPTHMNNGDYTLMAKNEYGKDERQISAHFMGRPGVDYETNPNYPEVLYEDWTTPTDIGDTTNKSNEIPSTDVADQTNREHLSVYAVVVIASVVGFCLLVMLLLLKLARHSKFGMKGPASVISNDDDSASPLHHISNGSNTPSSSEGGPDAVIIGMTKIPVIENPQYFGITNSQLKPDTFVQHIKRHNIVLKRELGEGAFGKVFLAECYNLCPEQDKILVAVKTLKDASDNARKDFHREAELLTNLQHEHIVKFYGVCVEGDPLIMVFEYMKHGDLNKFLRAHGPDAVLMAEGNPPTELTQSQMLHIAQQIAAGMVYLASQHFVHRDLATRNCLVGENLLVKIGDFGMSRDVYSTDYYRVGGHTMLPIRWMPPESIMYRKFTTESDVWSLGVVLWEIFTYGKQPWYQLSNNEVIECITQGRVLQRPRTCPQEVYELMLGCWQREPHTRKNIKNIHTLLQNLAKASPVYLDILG
T2 sequence (P35739 33-799): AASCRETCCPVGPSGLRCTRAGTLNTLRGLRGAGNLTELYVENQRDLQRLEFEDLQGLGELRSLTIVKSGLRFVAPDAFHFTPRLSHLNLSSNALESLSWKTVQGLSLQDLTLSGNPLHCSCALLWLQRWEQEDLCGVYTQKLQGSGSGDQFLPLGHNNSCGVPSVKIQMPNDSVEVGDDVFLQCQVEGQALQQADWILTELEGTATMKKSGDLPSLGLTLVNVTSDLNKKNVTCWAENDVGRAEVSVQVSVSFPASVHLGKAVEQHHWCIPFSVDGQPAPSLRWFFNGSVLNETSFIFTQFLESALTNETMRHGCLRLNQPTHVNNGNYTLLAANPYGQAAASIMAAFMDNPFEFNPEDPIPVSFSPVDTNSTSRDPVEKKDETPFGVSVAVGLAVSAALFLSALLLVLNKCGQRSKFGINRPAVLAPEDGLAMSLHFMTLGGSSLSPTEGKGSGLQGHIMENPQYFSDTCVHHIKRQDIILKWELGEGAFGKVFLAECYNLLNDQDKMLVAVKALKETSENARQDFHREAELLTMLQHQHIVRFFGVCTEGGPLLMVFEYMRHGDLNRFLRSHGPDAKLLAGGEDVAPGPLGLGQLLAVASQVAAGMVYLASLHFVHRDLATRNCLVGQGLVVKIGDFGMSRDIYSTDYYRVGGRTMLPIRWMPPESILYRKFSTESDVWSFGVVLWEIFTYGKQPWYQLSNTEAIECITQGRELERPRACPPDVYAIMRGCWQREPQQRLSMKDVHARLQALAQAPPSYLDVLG
T3 sequence (P04629 33-796): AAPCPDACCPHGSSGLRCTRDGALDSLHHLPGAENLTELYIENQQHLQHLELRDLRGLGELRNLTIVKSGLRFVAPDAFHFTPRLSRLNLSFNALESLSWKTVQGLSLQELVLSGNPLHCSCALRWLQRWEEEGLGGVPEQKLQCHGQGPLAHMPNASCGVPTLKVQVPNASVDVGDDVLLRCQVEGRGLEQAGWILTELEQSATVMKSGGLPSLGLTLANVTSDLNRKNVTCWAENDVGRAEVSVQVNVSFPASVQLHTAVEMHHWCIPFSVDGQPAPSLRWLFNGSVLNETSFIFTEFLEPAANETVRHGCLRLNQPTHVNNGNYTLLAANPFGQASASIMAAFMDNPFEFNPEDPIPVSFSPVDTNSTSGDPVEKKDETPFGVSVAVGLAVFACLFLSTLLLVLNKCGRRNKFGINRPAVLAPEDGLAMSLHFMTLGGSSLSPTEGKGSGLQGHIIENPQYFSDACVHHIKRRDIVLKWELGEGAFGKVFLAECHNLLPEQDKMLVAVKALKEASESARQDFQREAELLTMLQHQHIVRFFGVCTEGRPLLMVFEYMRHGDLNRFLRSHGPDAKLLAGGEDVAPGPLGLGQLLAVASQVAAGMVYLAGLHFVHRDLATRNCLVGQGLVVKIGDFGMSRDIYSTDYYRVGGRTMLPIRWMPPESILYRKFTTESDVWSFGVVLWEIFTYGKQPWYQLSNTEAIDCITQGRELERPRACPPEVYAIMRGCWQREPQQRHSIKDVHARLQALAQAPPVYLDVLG

SMILES: Cn1cc(/C=C2\C(=O)Nc3ccc(S(N)(=O)=O)cc32)c2ccccc21 [Compound 2a21]
residual activity of Syk (Gao et al.) [1]: 38%
IC50 [2]: ≤ 100 nM
remaining activity at 1 µM [3]: 2%
toxic or adverse effect on cells [4]: no toxic or adverse effect
inhibition of Syk [5]: failed to inhibit Syk at significant levels
remaining activity at 1 µM ([5]; read-out: residual activity of Syk): 47%
reported effect on Syk activity [6]: Syk inhibitors
residual activity of TrkA (Gao et al.) [7]: 1%

SMILES: COc1ccc2c(c1)c(/C=C1\C(=O)Nc3ccc(S(=O)(=O)N(C)C)cc31)cn2C [Compound 2a25, (Z)-3-((5-methoxy-1-methyl-1H-indol-3-yl)methylene)-N,N-dimethyl-2-oxindole-5-sulfonamide]
IC50 [2]: ≤ 100 nM
number of viable neurons [12]: No reduction
toxic or adverse effect on cells [4]: no toxic or adverse effect
kinases whose activity was reduced at least by 50% [11]: only TrkA
toxic effects in mice [13]: no toxic effects
cell viability (cellular ATP content) [14]: no effect
phosphorylation of downstream kinases Akt and Erk1/2 [8]: diminished
phosphorylation of TrkB [9]: effectively inhibited
phosphorylation of TrkA [10]: effectively inhibited
solubility ([15]; aqueous medium (not further specified)): 3.2 ± 0.1 µg/mL (≈ 7.78 µM)
aqueous solubility [15]: 7.8 ± 0.2 µM (≈ 3.21 µg/mL)
reported effect on Syk activity [6]: not to suppress Syk activity

SMILES: CN(C)S(=O)(=O)c1ccc2c(c1)/C(=C/c1cn(C)c3ccc(O)cc13)C(=O)N2 [Compound 3a25, (Z)-3-((5-hydroxy-1-methyl-1H-indol-3-yl)methylene)-N,N-dimethyl-2-oxindole-5-sulfonamide]
IC50 [2]: ≤ 100 nM
toxic or adverse effect on cells [4]: no toxic or adverse effect
kinases whose activity was reduced at least by 50% [11]: only one kinase in addition to the Trk kinases

SMILES: CNS(=O)(=O)c1ccc2c(c1)/C(=C/c1cn(C)c3ccc(OC)cc13)C(=O)N2 [Compound 4a22, (Z)-3-((5-methoxy-1-methyl-1H-indol-3-yl)methylene)-N-methyl-2-oxindole-5-sulfonamide]
toxic or adverse effect on cells [4]: no toxic or adverse effect
phosphorylation of downstream kinases Akt and Erk1/2 [8]: diminished
phosphorylation of TrkB [9]: effectively inhibited
phosphorylation of TrkA [10]: effectively inhibited

More lines, main results first:

phosphorylation of TrkB [9]: effectively inhibited
phosphorylation of TrkA [10]: effectively inhibited
SMILES: COc1ccc2c(c1)c(/C=C1\C(=O)Nc3ccc(S(N)(=O)=O)cc31)cn2C [Compound 2a22]
toxic or adverse effect on cells [4]: no toxic or adverse effect
phosphorylation of downstream kinases Akt and Erk1/2 [8]: diminished

IC50 [2]: ≤ 100 nM
SMILES: COc1ccc2[nH]cc(/C=C3\C(=O)Nc4ccc(S(N)(=O)=O)cc43)c2c1 [Compound 2a23, (Z)-3-((5-methoxy-1H-indol-3-yl)methylene)-2-oxindole-5-sulfonamide]
toxic or adverse effect on cells [4]: no toxic or adverse effect
kinases whose activity was reduced at least by 50% [11]: only one kinase in addition to the Trk kinases
inhibition of Syk [5]: failed to inhibit Syk at significant levels
reported effect on Syk activity [6]: Syk inhibitors
